# Experiments:
# [1] = system: female NMRI-albino mice; experiment: Acute toxicity, intravenous, mice; format: in vivo; settings: within 24 hours
# [2] = Acute toxicity, intravenous, mice; format: in vivo; settings: mouse, in vivo; intravenous, within 24 hours; read-out: Evaluated LD50-range
# [3] = system: mongrel cats; experiment: Inotropic and heart-circulatory effectiveness on narcotised cats, intravenous; format: in vivo, cat; settings: 6 animals; for blood pressure before / dp/dt (inotropism) before / heart frequency before: before administration
# [4] = system: narcotised guinea pigs; experiment: Blood pressure experiments on guinea pigs, i.v.; format: in vivo, guinea pig
smiles,measurement,setting,value
"O=[N+]([O-])O[C@H]1CO[C@H]2[C@@H]1OC[C@@H]2NCCCOc1ccc(Cl)cc1Cl [Example 72, 5-[3-(2,4-Dichlorophenoxy)-propylamino]-5-desoxy-1.4;3.6-dianhydro-L-iditol2-nitrate]",Frequency of death,[1]; 100 mg/kg i.v.,0/6
same,LD50 at 24 h,[2],> 100 mg/kg
"CC(=O)Nc1ccc(OCCCN[C@H]2CO[C@H]3[C@@H]2OC[C@@H]3O[N+](=O)[O-])cc1 [Example 73, 5-[3-(4-Acetamidophenoxy)-propylamino]-5-desoxy-1.4;3.6-dianhydro-L-iditol 2-nitrate]",Frequency of death,[1]; 100 mg/kg i.v.,0/3
same,Frequency of death,[1]; 200 mg/kg i.v.,0/3
same,LD50 at 24 h,[2],> 200 mg/kg
"O=[N+]([O-])O[C@H]1CO[C@H]2[C@@H]1OC[C@@H]2NCCCOc1ccc(Cl)cc1 [Example 68, 5-[3-(4-Chlorophenoxy)-propylamino]-5-desoxy-1.4;3.6-dianhydro-L-iditol 2-nitrate]",Frequency of death,[1]; 100 mg/kg i.v.,4/9
same,LD50 at 24 h,[2],~100 mg/kg
"O=[N+]([O-])O[C@H]1CO[C@H]2[C@@H]1OC[C@@H]2NCCCCCc1ccccc1 [Example 30, 5-(5-Phenylpentylamino)-5-desoxy-1.4;3.6-dianhydro-L-iditol 2-nitrate]",blood pressure before,[3]; 0.25 mg/kg i.v.,105.7 mm.Hg
same,dp/dt (inotropism) before,[3]; 0.25 mg/kg i.v.,9600 mm.Hg/sec
same,heart frequency before,[3]; 0.25 mg/kg i.v.,199.7 min⁻¹
same,blood pressure WD,[3]; 0.25 mg/kg i.v.,9.2 min
same,blood pressure after,[3]; 0.25 mg/kg i.v.,88.2 mm.Hg
same,blood pressure Δ,[3]; 0.25 mg/kg i.v.,-17.5 mm.Hg
same,dp/dt (inotropism) after,[3]; 0.25 mg/kg i.v.,8340 mm.Hg/sec
same,dp/dt (inotropism) Δ,[3]; 0.25 mg/kg i.v.,-1260 mm.Hg/sec
same,dp/dt WD,[3]; 0.25 mg/kg i.v.,10.2 min
same,heart frequency after,[3]; 0.25 mg/kg i.v.,198.0 min⁻¹
same,heart frequency Δ,[3]; 0.25 mg/kg i.v.,-1.7 min⁻¹
same,blood pressure WD,[3]; 0.50 mg/kg i.v.,11.2 min
same,blood pressure after,[3]; 0.50 mg/kg i.v.,81.8 mm.Hg
same,blood pressure Δ,[3]; 0.50 mg/kg i.v.,-25.0 mm.Hg
same,dp/dt (inotropism) after,[3]; 0.50 mg/kg i.v.,7540 mm.Hg/sec
same,dp/dt (inotropism) Δ,[3]; 0.50 mg/kg i.v.,-1820 mm.Hg/sec
same,dp/dt WD,[3]; 0.50 mg/kg i.v.,13.7 min
same,heart frequency after,[3]; 0.50 mg/kg i.v.,200.3 min⁻¹
same,heart frequency Δ,[3]; 0.50 mg/kg i.v.,-0.7 min⁻¹
same,blood pressure WD,[3]; 1.00 mg/kg i.v.,22.2 min
same,blood pressure after,[3]; 1.00 mg/kg i.v.,73.3 mm.Hg
same,blood pressure Δ,[3]; 1.00 mg/kg i.v.,-33.0 mm.Hg
same,dp/dt (inotropism) after,[3]; 1.00 mg/kg i.v.,6160 mm.Hg/sec
same,dp/dt (inotropism) Δ,[3]; 1.00 mg/kg i.v.,-2180 mm.Hg/sec
same,dp/dt WD,[3]; 1.00 mg/kg i.v.,23.6 min
same,heart frequency after,[3]; 1.00 mg/kg i.v.,196.0 min⁻¹
same,heart frequency Δ,[3]; 1.00 mg/kg i.v.,-2.3 min⁻¹
same,blood pressure WD,[3]; 2.50 mg/kg i.v.,> 10 min
same,blood pressure after,[3]; 2.50 mg/kg i.v.,60.3 mm.Hg
same,blood pressure Δ,[3]; 2.50 mg/kg i.v.,-45.8 mm.Hg
same,dp/dt (inotropism) after,[3]; 2.50 mg/kg i.v.,5840 mm.Hg/sec
same,dp/dt (inotropism) Δ,[3]; 2.50 mg/kg i.v.,-2060 mm.Hg/sec
same,dp/dt WD,[3]; 2.50 mg/kg i.v.,> 10 min
same,heart frequency after,[3]; 2.50 mg/kg i.v.,188.3 min⁻¹
same,heart frequency Δ,[3]; 2.50 mg/kg i.v.,-2.0 min⁻¹
"COc1cc(OC)cc(OCCCN[C@H]2CO[C@H]3[C@@H]2OC[C@@H]3O[N+](=O)[O-])c1 [Example 66, 5-[3-(3,5-Dimethoxyphenoxy)-propylamino]-5-desoxy-1.4;3.6-dianhydro-L-iditol 2-nitrate]",Frequency of death,[1]; 100 mg/kg i.v.,2/10
same,Frequency of death,[1]; 200 mg/kg i.v.,3/3
same,LD50 at 24 h,[2],100 to 200 mg/kg
N[C@H]1CO[C@H]2[C@@H]1OC[C@@H]2O[N+](=O)[O-] [1 c],Frequency of death,[1]; 200 mg/kg i.v.,0/3
same,LD50 at 24 h,[2],> 200 mg/kg
"O=[N+]([O-])O[C@H]1CO[C@H]2[C@@H]1OC[C@@H]2NCCCOc1ccccc1Cl [Example 69, 5-[3-(2-Chlorophenoxy)-propylamino]-5-desoxy-1.4;3.6-dianhydro-L-iditol 2-nitrate]",Frequency of death,[1]; 50 mg/kg i.v.,0/10
same,Frequency of death,[1]; 100 mg/kg i.v.,3/6
same,LD50 at 24 h,[2],50 to 100 mg/kg
"O=[N+]([O-])O[C@H]1CO[C@H]2[C@@H]1OC[C@@H]2NCCCOc1cccc(C(F)(F)F)c1 [Example 58, 5-[3-(3-Trifluoromethylphenoxy)-propylamino]-5-desoxy-1.4;3.6-dianhydro-L-iditol 2-nitrate]",Frequency of death,[1]; 100 mg/kg i.v.,7/12
same,LD50 at 24 h,[2],~100 mg/kg
"COc1cccc(OC)c1OCCCN[C@H]1CO[C@H]2[C@@H]1OC[C@@H]2O[N+](=O)[O-] [Example 65, 5-[3-(2,6-Dimethoxyphenoxy)-propylamino]-5-desoxy-1.4;3.6-dianhydro-L-iditol 2-nitrate]",Frequency of death,[1]; 50 mg/kg i.v.,4/10
same,Frequency of death,[1]; 100 mg/kg i.v.,10/10
same,Frequency of death,[1]; 200 mg/kg i.v.,3/3
same,LD50 at 24 h,[2],~50 mg/kg
"CN(CCCCc1ccccc1)[C@H]1CO[C@H]2[C@@H]1OC[C@@H]2O[N+](=O)[O-] [Example 22, 5-[N-(4-Phenylbutyl)-N-methylamino]-5-desoxy-1.4;3.6-dianhydro-L-iditol 2-nitrate]",Frequency of death,[1]; 50 mg/kg i.v.,1/3
same,Frequency of death,[1]; 100 mg/kg i.v.,3/3
same,Frequency of death,[1]; 200 mg/kg i.v.,6/6
same,LD50 at 24 h,[2],≥ 50 mg/kg
"O=[N+]([O-])O[C@@H]1CO[C@H]2[C@@H]1OC[C@@H]2NCCCOc1ccccc1 [Example 42, 2-(3-Phenoxypropylamino)-2-desoxy-1.4;3.6-dianhydro-D-glucitol 5-nitrate]",Frequency of death,[1]; 50 mg/kg i.v.,0/3
same,Frequency of death,[1]; 100 mg/kg i.v.,2/3
same,Frequency of death,[1]; 200 mg/kg i.v.,6/6
same,LD50 at 24 h,[2],50 to 100 mg/kg
"O=[N+]([O-])O[C@H]1CO[C@H]2[C@@H]1OC[C@@H]2NCCCCOc1ccccc1 [Example 37, 5-(4-Phenoxybutylamino)-5-desoxy-1.4;3.6-dianhydro-L-iditol 2-nitrate]",Frequency of death,[1]; 50 mg/kg i.v.,3/10
same,Frequency of death,[1]; 100 mg/kg i.v.,10/10
same,Frequency of death,[1]; 200 mg/kg i.v.,3/3
same,LD50 at 24 h,[2],≥ 50 mg/kg
"O=[N+]([O-])O[C@@H]1CO[C@H]2[C@@H]1OC[C@@H]2NCCCCc1ccccc1 [Example 43, 2-(4-phenylbutylamino)-2-desoxy-1.4;3.6-dianhydro-D-glucitol 5-nitrate]",Frequency of death,[1]; 50 mg/kg i.v.,1/3
same,Frequency of death,[1]; 100 mg/kg i.v.,3/3
same,Frequency of death,[1]; 200 mg/kg i.v.,6/6
same,LD50 at 24 h,[2],≥ 50 mg/kg
"COc1ccccc1OCC(O)CN[C@H]1CO[C@H]2[C@@H]1OC[C@@H]2O[N+](=O)[O-] (stereo partly drawn) [Example 46, 5-[2-Hydroxy-3-(2-methoxyphenoxy)-propylamino]-5-desoxy-1.4;3.6-dianhydro-L-iditol 2-nitrate]",Frequency of death,[1]; 100 mg/kg i.v.,0/3
same,Frequency of death,[1]; 200 mg/kg i.v.,2/3
same,LD50 at 24 h,[2],100 to 200 mg/kg
"COc1cccc(OCCCN[C@H]2CO[C@H]3[C@@H]2OC[C@@H]3O[N+](=O)[O-])c1OC [Example 67, 5-[3-(2,3-Dimethoxyphenoxy)-propylamino]-5-desoxy-1.4;3.6-dianhydro-L-iditol 2-nitrate]",Frequency of death,[1]; 50 mg/kg i.v.,0/10
same,Frequency of death,[1]; 100 mg/kg i.v.,3/3
same,Frequency of death,[1]; 200 mg/kg i.v.,3/3
same,LD50 at 24 h,[2],~70 mg/kg
"COc1ccc(CCCCN[C@H]2CO[C@H]3[C@@H]2OC[C@@H]3O[N+](=O)[O-])cc1 [Example 32, 5-[4-(4-Methoxyphenyl)-butylamino]-5-desoxy-1.4;3.6-dianhydro-L-iditol 2-nitrate]",Frequency of death,[1]; 50 mg/kg i.v.,1/10
same,Frequency of death,[1]; 100 mg/kg i.v.,10/10
same,LD50 at 24 h,[2],50 to 100 mg/kg
"CCOc1ccccc1OCC(O)CN[C@H]1CO[C@H]2[C@@H]1OC[C@@H]2O[N+](=O)[O-] (stereo partly drawn) [Example 47, 5-[2-Hydroxy-3-(2-ethoxyphenoxy)-propylamino]-5-desoxy-1.4;3.6-dianhydro-L-iditol 2-nitrate]",blood pressure before,[3]; 0.25 mg/kg i.v.,125.7 mm.Hg
same,dp/dt (inotropism) before,[3]; 0.25 mg/kg i.v.,8333 mm.Hg/sec
same,heart frequency before,[3]; 0.25 mg/kg i.v.,187.3 min⁻¹
same,blood pressure WD,[3]; 0.25 mg/kg i.v.,3.0 min
same,blood pressure after,[3]; 0.25 mg/kg i.v.,121.7 mm.Hg
same,blood pressure Δ,[3]; 0.25 mg/kg i.v.,-4.0 mm.Hg
same,dp/dt (inotropism) after,[3]; 0.25 mg/kg i.v.,7433 mm.Hg/sec
same,dp/dt (inotropism) Δ,[3]; 0.25 mg/kg i.v.,-900 mm.Hg/sec
same,dp/dt WD,[3]; 0.25 mg/kg i.v.,3.7 min
same,heart frequency after,[3]; 0.25 mg/kg i.v.,188.7 min⁻¹
same,heart frequency Δ,[3]; 0.25 mg/kg i.v.,+1.4 min^-1
same,blood pressure WD,[3]; 0.50 mg/kg i.v.,5.7 min
same,blood pressure after,[3]; 0.50 mg/kg i.v.,114.2 mm.Hg
same,blood pressure Δ,[3]; 0.50 mg/kg i.v.,-11.3 mm.Hg
same,dp/dt (inotropism) after,[3]; 0.50 mg/kg i.v.,7150 mm.Hg/sec
same,dp/dt (inotropism) Δ,[3]; 0.50 mg/kg i.v.,-1417 mm.Hg/sec
same,dp/dt WD,[3]; 0.50 mg/kg i.v.,9.5 min
same,heart frequency after,[3]; 0.50 mg/kg i.v.,196.0 min⁻¹
same,heart frequency Δ,[3]; 0.50 mg/kg i.v.,+0.3 min^-1
same,blood pressure WD,[3]; 1.00 mg/kg i.v.,8.2 min
same,blood pressure after,[3]; 1.00 mg/kg i.v.,100.8 mm.Hg
same,blood pressure Δ,[3]; 1.00 mg/kg i.v.,-24.3 mm.Hg
same,dp/dt (inotropism) after,[3]; 1.00 mg/kg i.v.,5067 mm.Hg/sec
same,dp/dt (inotropism) Δ,[3]; 1.00 mg/kg i.v.,-2983 mm.Hg/sec
same,dp/dt WD,[3]; 1.00 mg/kg i.v.,10.9 min
same,heart frequency after,[3]; 1.00 mg/kg i.v.,187.0 min⁻¹
same,heart frequency Δ,[3]; 1.00 mg/kg i.v.,-5.0 min⁻¹
same,blood pressure WD,[3]; 2.50 mg/kg i.v.,> 9.0 min
same,blood pressure after,[3]; 2.50 mg/kg i.v.,79.5 mm.Hg
same,blood pressure Δ,[3]; 2.50 mg/kg i.v.,-45.2 mm.Hg
same,dp/dt (inotropism) after,[3]; 2.50 mg/kg i.v.,2933 mm.Hg/sec
same,dp/dt (inotropism) Δ,[3]; 2.50 mg/kg i.v.,-4500 mm.Hg/sec
same,dp/dt WD,[3]; 2.50 mg/kg i.v.,> 10 min
same,heart frequency after,[3]; 2.50 mg/kg i.v.,171.7 min⁻¹
same,heart frequency Δ,[3]; 2.50 mg/kg i.v.,-20.3 min⁻¹
same,blood pressure after,[4]; 0.25 mg/kg i.v.,41.25 ± 2.78 mm.Hg
same,blood pressure Δ,[4]; 0.25 mg/kg i.v.,-5.75 mm.Hg
same,blood pressure before,"[4]; 0.25 mg/kg i.v., before administration",47.00 ± 3.39 mm.Hg
same,blood pressure after,[4]; 1.00 mg/kg i.v.,33.75 ± 2.02 mm.Hg
same,blood pressure Δ,[4]; 1.00 mg/kg i.v.,-10.75 mm.Hg
same,blood pressure after,[4]; 2.50 mg/kg i.v.,25.75 ± 1.31 mm.Hg
same,blood pressure Δ,[4]; 2.50 mg/kg i.v.,-13.75 mm.Hg
"COc1ccc(OCC(O)CN[C@H]2CO[C@H]3[C@@H]2OC[C@@H]3O[N+](=O)[O-])cc1 (stereo partly drawn) [Example 44, 5-[2-Hydroxy-3-(4-methoxyphenoxy)-propylamino]-5-desoxy-1.4;3.6-dianhydro-L-iditol 2-nitrate]",Frequency of death,[1]; 100 mg/kg i.v.,0/3
same,Frequency of death,[1]; 200 mg/kg i.v.,2/3
same,LD50 at 24 h,[2],100 to 200 mg/kg

# Reference: patent US4363805A, “Aminodesoxy-1.4;3.6-dianhydrohexitol nitrates and pharmaceutical composition” (Firma Willmar Schwabe, priority 1980, dated 1982)
